US8822517B2, “Arylosulfonamides for the treatment of CNS diseases” (Adamed SP. Z O.O., priority 2010, dated 2014)
Like-named read-outs stand apart in the source and are kept apart here.

Columns and labels:
[1] = target: T1, histaminergic H1 receptor (Homo sapiens, UniProt P35367); assay: Cellular functional assay, histaminergic H1 receptor (agonism/antagonism); type: cell-based; settings: for activation at 1 µM: read-out: H1 -ag [%]; for inhibition at 1 µM: read-out: H1 -antag. [%]
Procedure: (§1) The compounds were tested at the concentration of 1×10^−6M.
(§2) In the Tables ag refers to agonism, and antag to antagonism).

[2] = target: T2, serotoninergic 5-HT7 receptor (Homo sapiens, UniProt P34969); assay: Binding assay 5-HT7 (h), [3H]LSD, CHO cells; parameters: expressed in transfected cells; host or cells: CHO cells; settings: read-out: 5-HT7
In short: (§3)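 At 1×10^−6 M, compounds were assessed for their effect on specific radioligand binding, computed as total less nonspecific binding (excess unlabelled ligand present).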

[3] = target: T1, histaminergic H1 receptor; assay: Binding assay H1 (h), [3H]pyrilamine, HEK-293 cells; parameters: expressed in transfected cells; host or cells: HEK-293 cells; settings: read-out: H1 [%]
In short: as §3

[4] = target: serotoninergic 5-HT2A receptor (Homo sapiens, UniProt P28223); assay: Cellular functional assay, serotoninergic 5-HT2A receptor (agonism/antagonism); type: cell-based; settings: for activation at 1 µM: read-out: 5-HT2A -ag [%]; for inhibition at 1 µM: read-out: 5-HT2A -antag [%]
In short: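 Human receptors tested in cell-based functional format for both agonist and antagonist modes. Single compound concentration of 1×10^−6M.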

[5] = target: T3, serotoninergic 5-HT6 receptor (Homo sapiens, UniProt P50406); assay: Cellular functional assay, serotoninergic 5-HT6 receptor (agonism/antagonism); type: cell-based; settings: for activation at 1 µM: read-out: 5-HT6-ag [%]; for inhibition at 1 µM: read-out: 5-HT6-antag. [%]
Procedure: as §1, §2

[6] = target: T4, dopaminergic D2 receptor (Homo sapiens, UniProt P14416); assay: Cellular functional assay, dopaminergic D2 receptor (agonism/antagonism); type: cell-based
Procedure: as §1, §2
Target sequence in this assay (P14416 whole entry): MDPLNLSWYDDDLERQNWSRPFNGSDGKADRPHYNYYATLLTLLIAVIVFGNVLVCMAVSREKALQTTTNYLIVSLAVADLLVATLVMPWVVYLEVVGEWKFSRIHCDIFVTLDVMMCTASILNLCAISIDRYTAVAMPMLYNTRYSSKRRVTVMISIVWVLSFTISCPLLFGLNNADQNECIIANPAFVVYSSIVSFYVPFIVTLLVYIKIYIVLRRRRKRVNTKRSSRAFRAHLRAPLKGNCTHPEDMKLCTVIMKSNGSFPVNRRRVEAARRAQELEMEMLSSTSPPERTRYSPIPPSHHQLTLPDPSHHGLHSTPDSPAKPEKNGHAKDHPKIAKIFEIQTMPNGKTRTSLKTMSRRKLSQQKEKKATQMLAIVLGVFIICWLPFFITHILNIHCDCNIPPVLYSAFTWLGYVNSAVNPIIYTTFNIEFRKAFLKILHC

[7] = target: T5, adrenergic α2C receptor (Homo sapiens, UniProt P18825); assay: Binding assay α2C (h), [3H]RX 821002, CHO cells; parameters: expressed in transfected cells; host or cells: CHO cells; settings: read-out: α2C [%]
T5 sequence (P18825 1-462): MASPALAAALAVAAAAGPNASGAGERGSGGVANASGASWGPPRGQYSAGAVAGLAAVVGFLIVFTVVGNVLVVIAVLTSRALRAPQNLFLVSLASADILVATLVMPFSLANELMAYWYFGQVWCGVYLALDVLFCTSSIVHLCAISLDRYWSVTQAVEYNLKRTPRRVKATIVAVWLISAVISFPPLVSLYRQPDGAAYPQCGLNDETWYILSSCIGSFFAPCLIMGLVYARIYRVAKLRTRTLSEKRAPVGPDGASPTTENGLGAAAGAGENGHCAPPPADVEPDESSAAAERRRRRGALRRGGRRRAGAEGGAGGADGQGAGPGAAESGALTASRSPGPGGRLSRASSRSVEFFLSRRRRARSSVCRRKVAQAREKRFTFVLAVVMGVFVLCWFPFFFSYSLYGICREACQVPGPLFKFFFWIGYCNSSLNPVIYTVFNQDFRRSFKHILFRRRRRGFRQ
In short: as §3

[8] = target: T6, serotonine transporter (SERT) receptor (Homo sapiens, UniProt P31645); assay: Binding assay SERT (h), [3H]imipramine, CHO cells; settings: read-out: SERT [%]
T6 construct: expressed in transfected cells; host or cells: CHO cells
In short: as §3

[9] = target: T7, dopaminergic D3 receptor (Homo sapiens, UniProt P35462); assay: Binding assay D3 (h), [3H]methyl-spiperone, CHO cells; parameters: expressed in transfected cells; host or cells: CHO cells; settings: read-out: D3 [%]
In short: as §3

[10] = target: T5, adrenergic α2C receptor; assay: Cellular functional assay, adrenergic α2C receptor (agonism/antagonism); type: cell-based; settings: for activation at 1 µM: read-out: α2C −ag [%]; for inhibition at 1 µM: read-out: α2C −antag. [%]
Procedure: as §1, §2

[11] = target: T7, dopaminergic D3 receptor; assay: Cellular functional assay, dopaminergic D3 receptor (agonism/antagonism); type: cell-based
Procedure: as §1, §2

[12] = target: T4, dopaminergic D2 receptor; assay: Binding assay D2S (h), [3H]methyl-spiperone, HEK-293 cells; parameters: expressed in transfected cells; host or cells: HEK-293 cells; settings: read-out: D2 [%]
In short: as §3
Target sequence in this assay (P14416 1-414 isoform P14416-2): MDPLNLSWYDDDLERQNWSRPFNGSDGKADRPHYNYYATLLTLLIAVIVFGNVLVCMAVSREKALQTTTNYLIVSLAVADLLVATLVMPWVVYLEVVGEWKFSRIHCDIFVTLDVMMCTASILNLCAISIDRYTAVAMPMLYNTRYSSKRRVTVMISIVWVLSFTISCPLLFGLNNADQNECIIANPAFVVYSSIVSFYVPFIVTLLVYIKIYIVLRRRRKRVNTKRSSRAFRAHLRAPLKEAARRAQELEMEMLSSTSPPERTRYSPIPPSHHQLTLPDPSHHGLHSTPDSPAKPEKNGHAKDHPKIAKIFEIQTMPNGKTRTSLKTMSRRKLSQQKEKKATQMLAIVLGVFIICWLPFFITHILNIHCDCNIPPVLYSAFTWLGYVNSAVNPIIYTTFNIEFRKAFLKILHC

[13] = target: T8, muscarinic M3 receptor (Homo sapiens, UniProt P20309); assay: Binding assay M3 (h), [3H]4-DAMP, CHO cells; settings: read-out: M3 [%]
T8 construct: expressed in transfected cells; host or cells: CHO cells
In short: as §3

[14] = tested on: sigma σ receptor; assay: Binding assay σ (non-selective), [3H]DTG, rat cerebral cortex; settings: percent inhibition of control specific binding; compounds tested at 1×10^−6 M
In short: as §3

[15] = target: T3, serotoninergic 5-HT6 receptor; assay: Binding assay 5-HT6 (h), [3H]LSD, CHO cells; parameters: expressed in transfected cells; host or cells: CHO cells; settings: read-out: 5-HT6
In short: as §3

[16] = target: T2, serotoninergic 5-HT7 receptor; assay: Cellular functional assay, serotoninergic 5-HT7 receptor (agonism/antagonism); type: cell-based; settings: for activation at 1 µM: read-out: 5-HT7-ag [%]; for inhibition at 1 µM: read-out: 5-HT7-antag. [%]
Procedure: as §1, §2

[17] = tested on: adrenergic α1 receptor; assay: Binding assay α1 (non-selective), [3H]prazosin, rat cerebral cortex; settings: percent inhibition of control specific binding; compounds tested at 1×10^−6 M
In short: as §3

[18] = agonist effect, percent of control specific agonist response, compounds tested at 1×10^−6M
[19] = HEK293; agonist effect, percent of control specific agonist response (3 μM dopamine for control); 1×10^−6 M; D2S (h), HEK-293 cells; read-out: D2-ag [%]
[20] = HEK293; read-out: D2-antag. [%]
[21] = agonist effect, percent of control specific agonist response (300 nM dopamine for control); 1×10^−6 M; D3 (h), CHO cells; read-out: D3-ag [%]

T2 sequence (P34969 whole entry): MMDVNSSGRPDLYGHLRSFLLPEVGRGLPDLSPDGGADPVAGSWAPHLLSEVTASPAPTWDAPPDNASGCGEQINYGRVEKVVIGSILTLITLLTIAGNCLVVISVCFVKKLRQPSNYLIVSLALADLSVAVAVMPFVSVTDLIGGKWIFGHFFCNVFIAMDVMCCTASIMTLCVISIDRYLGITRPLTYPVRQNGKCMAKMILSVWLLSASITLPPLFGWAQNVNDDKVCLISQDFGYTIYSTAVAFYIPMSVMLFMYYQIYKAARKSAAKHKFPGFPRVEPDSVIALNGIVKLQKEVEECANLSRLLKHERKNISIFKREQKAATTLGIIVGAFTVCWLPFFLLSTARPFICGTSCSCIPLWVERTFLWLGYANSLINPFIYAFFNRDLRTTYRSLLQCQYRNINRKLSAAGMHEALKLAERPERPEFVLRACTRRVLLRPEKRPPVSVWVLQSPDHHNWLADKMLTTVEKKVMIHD
T8 sequence (P20309 whole entry): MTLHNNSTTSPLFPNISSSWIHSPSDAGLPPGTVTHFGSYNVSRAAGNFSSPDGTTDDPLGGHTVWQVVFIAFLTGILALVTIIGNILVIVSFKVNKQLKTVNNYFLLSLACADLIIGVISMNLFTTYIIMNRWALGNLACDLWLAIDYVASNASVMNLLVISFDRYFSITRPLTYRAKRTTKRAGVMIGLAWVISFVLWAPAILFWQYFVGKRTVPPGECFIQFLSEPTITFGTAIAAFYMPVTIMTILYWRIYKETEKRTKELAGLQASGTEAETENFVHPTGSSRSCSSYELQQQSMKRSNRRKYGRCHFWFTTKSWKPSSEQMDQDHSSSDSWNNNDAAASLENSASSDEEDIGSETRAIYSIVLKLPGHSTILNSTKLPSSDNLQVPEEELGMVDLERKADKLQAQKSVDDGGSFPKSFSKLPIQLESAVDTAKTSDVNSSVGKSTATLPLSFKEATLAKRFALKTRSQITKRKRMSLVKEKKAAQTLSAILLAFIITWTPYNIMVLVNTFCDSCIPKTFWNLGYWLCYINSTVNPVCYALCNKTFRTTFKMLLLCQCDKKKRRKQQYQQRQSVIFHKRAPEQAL
T1 sequence (P35367 whole entry): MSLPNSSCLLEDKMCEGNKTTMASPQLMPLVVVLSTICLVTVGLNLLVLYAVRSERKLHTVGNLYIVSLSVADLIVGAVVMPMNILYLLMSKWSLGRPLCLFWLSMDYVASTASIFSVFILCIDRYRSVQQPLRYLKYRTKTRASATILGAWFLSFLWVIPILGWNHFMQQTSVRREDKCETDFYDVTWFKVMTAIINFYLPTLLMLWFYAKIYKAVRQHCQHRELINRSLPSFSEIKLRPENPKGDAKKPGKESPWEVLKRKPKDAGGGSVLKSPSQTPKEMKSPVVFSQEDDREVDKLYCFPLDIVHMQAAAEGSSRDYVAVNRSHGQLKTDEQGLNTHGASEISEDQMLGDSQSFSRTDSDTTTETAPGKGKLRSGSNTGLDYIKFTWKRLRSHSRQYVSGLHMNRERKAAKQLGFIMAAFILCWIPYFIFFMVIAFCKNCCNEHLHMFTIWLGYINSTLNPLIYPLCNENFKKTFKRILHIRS
T7 sequence (P35462 whole entry): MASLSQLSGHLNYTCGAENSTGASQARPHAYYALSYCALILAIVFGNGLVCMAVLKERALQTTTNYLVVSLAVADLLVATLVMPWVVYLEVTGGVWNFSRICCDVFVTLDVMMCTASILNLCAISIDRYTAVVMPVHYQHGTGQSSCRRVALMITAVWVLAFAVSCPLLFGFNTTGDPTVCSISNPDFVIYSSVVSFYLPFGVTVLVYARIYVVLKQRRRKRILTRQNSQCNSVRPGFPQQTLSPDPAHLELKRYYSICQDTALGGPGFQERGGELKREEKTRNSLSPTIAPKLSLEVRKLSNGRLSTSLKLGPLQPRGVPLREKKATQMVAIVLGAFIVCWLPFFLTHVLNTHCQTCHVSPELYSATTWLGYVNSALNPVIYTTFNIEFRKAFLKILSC
T3 sequence (P50406 whole entry): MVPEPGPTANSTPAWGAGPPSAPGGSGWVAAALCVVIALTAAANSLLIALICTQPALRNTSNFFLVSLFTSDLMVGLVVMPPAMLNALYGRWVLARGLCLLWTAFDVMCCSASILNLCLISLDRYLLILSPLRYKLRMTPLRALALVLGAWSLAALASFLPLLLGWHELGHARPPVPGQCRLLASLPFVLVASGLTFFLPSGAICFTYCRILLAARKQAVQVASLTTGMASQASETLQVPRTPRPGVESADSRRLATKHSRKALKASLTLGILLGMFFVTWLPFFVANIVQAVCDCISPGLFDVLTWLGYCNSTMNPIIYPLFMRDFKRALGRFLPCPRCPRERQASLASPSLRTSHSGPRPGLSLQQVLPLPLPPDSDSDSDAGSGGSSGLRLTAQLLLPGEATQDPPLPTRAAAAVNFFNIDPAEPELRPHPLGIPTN
T6 sequence (P31645 whole entry): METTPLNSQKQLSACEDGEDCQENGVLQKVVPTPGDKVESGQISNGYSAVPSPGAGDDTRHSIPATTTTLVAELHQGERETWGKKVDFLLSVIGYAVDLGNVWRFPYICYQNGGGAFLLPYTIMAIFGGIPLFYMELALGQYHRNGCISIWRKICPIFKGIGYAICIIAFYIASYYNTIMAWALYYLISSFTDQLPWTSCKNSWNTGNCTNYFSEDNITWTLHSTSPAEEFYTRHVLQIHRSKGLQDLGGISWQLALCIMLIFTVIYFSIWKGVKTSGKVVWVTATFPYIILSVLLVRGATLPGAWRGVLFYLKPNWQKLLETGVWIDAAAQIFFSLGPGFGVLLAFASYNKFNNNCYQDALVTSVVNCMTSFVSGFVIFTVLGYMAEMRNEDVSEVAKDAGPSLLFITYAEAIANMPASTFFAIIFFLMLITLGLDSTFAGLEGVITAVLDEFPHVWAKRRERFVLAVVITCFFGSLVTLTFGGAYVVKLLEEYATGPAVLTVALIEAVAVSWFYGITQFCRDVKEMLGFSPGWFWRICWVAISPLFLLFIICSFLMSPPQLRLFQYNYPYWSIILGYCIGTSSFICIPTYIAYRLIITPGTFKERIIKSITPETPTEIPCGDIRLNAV
Chain of serotoninergic 5-HT2A receptor (P28223 whole entry): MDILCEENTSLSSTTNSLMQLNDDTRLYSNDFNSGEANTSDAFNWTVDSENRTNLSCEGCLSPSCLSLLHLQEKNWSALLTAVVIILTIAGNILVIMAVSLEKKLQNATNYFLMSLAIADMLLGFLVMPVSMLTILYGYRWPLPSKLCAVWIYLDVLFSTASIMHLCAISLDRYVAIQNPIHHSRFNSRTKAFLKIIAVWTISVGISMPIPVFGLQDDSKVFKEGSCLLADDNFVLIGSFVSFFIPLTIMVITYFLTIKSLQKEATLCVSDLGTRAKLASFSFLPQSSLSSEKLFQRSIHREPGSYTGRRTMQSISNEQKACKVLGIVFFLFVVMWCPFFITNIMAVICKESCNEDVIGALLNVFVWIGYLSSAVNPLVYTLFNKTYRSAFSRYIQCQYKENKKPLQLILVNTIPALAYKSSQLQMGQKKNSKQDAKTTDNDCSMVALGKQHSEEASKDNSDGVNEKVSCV

O=S(=O)(NCCCCN1CCN(c2nsc3ccccc23)CC1)c1cccc2ccccc12 [Compound 1, N-(4-(4-(1,2-Benzothiazol-3-yl)piperazin-1-yl)butyl)naphthalene-1-sulphonamide]
activation at 1 µM [1, 18]: 0%
inhibition at 1 µM [1]: 51%
inhibition at 1 µM [2]: 96%
inhibition at 1 µM [3]: 91%
activation at 1 µM [4]: 0%
inhibition at 1 µM [4]: 99%
activation at 1 µM [5, 18]: 1%
inhibition at 1 µM [5]: 39%
activation at 1 µM [6, 19]: -1%
inhibition at 1 µM [6, 20]: 95%
inhibition at 1 µM [7]: 100%
inhibition at 1 µM [8]: 49%
inhibition at 1 µM [9]: 96%
activation at 1 µM [10, 18]: -9%
inhibition at 1 µM [10]: 7%
inhibition at 1 µM ([11]; CHO; read-out: D3-antag. [%]): 49%
activation at 1 µM [11, 21]: -17%
inhibition at 1 µM [12]: 97%
inhibition at 1 µM [13]: 13%
σ [%] [14]: 54%
inhibition at 1 µM [15]: 95%
activation at 1 µM [16, 18]: -1%
inhibition at 1 µM [16]: 97%
α1 [%] [17]: 99%

O=S(=O)(NCCCCN1CCN(c2nsc3ccccc23)CC1)c1ccc2ccccc2c1 [Compound 2, N-(4-(4-(1,2-Benzothiazol-3-yl)piperazin-1-yl)butyl)naphthalene-2-sulphonamide]
activation at 1 µM [1]: -1%
inhibition at 1 µM [1]: 48%
inhibition at 1 µM [2]: 97%
inhibition at 1 µM [3]: 94%
activation at 1 µM [4]: 2%
inhibition at 1 µM [4]: 102%
activation at 1 µM [5]: 2%
inhibition at 1 µM [5]: 28%
activation at 1 µM ([6]; HEK293, read-out: D2-ag [%]): 2%
inhibition at 1 µM ([6]; HEK293, read-out: D2-antag. [%]): 97%
inhibition at 1 µM [7]: 101%
inhibition at 1 µM [8]: 69%
inhibition at 1 µM [9]: 100%
activation at 1 µM [10]: -8%
inhibition at 1 µM [10]: 30%
activation at 1 µM ([11]; CHO, read-out: D3-ag [%]): -15%
inhibition at 1 µM ([11]; CHO, read-out: D3-antag. [%]): 81%
inhibition at 1 µM [12]: 98%
inhibition at 1 µM [13]: 17%
σ [%] [14]: 65%
inhibition at 1 µM [15]: 97%
activation at 1 µM [16]: -1%
inhibition at 1 µM [16]: 80%
α1 [%] [17]: 97%

O=S(=O)(NCCCN1CCC(c2noc3cc(F)ccc23)CC1)c1ccc2cc(Cl)ccc2c1 [Compound 98, 6-Chloro-N-[3-[4-(6-fluoro-1,2-benzoxazol-3-yl)piperidin-1-yl]propyl]naphthalene-2-sulphonamide]
activation at 1 µM [1, 18]: -1%
inhibition at 1 µM [1]: 78%
inhibition at 1 µM [2]: 98%
inhibition at 1 µM [3]: 100%
activation at 1 µM [4]: -2%
inhibition at 1 µM [4]: 97%
activation at 1 µM [5, 18]: -2%
inhibition at 1 µM [5]: 79%
activation at 1 µM [6, 19]: 4%
inhibition at 1 µM [6, 20]: 80%
inhibition at 1 µM [7]: 108%
inhibition at 1 µM [8]: 54%
inhibition at 1 µM [9]: 104%
activation at 1 µM [10, 18]: -1%
inhibition at 1 µM [10]: 16%
inhibition at 1 µM ([11]; CHO; read-out: D3-antag. [%]): 109%
activation at 1 µM [11, 21]: -10%
inhibition at 1 µM [12]: 101%
inhibition at 1 µM [13]: 16%
inhibition at 1 µM [15]: 98%
activation at 1 µM [16, 18]: -2%
inhibition at 1 µM [16]: 92%

O=S(=O)(NCCCN1CCC(c2noc3cc(F)ccc23)CC1)c1ccc(F)c(Cl)c1 [Compound 331, 3-Chloro-4-fluoro-N-[3-[4-(6-fluoro-1,2-benzoxazol-3-yl)piperidin-1-yl]propyl]benzenesulphonamide]
activation at 1 µM [1, 18]: 2%
inhibition at 1 µM [1]: 85%
inhibition at 1 µM [2]: 99%
inhibition at 1 µM [3]: 97%
activation at 1 µM [4]: -1%
inhibition at 1 µM [4]: 98%
activation at 1 µM [5, 18]: -1%
inhibition at 1 µM [5]: 98%
activation at 1 µM [6, 19]: 4%
inhibition at 1 µM [6, 20]: 87%
inhibition at 1 µM [7]: 104%
inhibition at 1 µM [8]: 31%
inhibition at 1 µM [9]: 100%
activation at 1 µM [10, 18]: -14%
inhibition at 1 µM [10]: 7%
inhibition at 1 µM ([11]; CHO; read-out: D3-antag. [%]): 114%
activation at 1 µM [11, 21]: -15%
inhibition at 1 µM [12]: 100%
inhibition at 1 µM [13]: 10%
inhibition at 1 µM [15]: 97%
activation at 1 µM [16, 18]: -2%
inhibition at 1 µM [16]: 102%
